For series [1], the system named is Vero cells. In words: Cell viability assay (CCK-8) on Vero cells. It counts as cell-based, African green monkey. The note with it: 24 h; for Cytotoxicity: CCK-8, tested up to 30 µM; for inhibition at 30 µM: Chlorocebus sabaeus, CCK-8, read-out: Inhibition rate of Vero cell at 30 μM. As to the method: African green monkey kidney (Vero) cells were cultured in Dulbecco’s modified Eagle’s medium (DMEM) supplemented with 100 U/mL penicillin, 100 μg/mL streptomycin, 1% nonessential amino acids (NEAAs), 1% GlutaMAX and 10% fetal bovine serum (FBS) at 37 °C in an atmosphere of 5% CO2. […] DMEM without a drug was used as a control. After 24 h of treatment, Cell Counting Kit-8 (CCK-8, CA1210, Solarbio) was used to determine cell viability at 450 nm via a Multiskan GO instrument.

Series [2] relates to T. gondii RH tachyzoites. The series is described as follows: Screening for anti-T. gondii activity in vitro (plaque and qPCR assays). Type of series: cell-based, Toxoplasma gondii. The following applies: for inhibition of growth at 30 µM: Toxoplasma gondii, Vero, 24 h, RH tachyzoites in Vero cells, plaque and qPCR assays. As to the method: The anti-T. gondii activity of compounds NBZ001‒037 was examined via RT-PCR. Confluent Vero cells in 6-well plates were infected with 2 × 10^5 T. gondii RH tachyzoites per well, incubated for 6 h, and then washed twice with PBS to remove extracellular tachyzoites. The cell monolayers were incubated with DMEM (1% FBS) containing various concentrations of NBZ001‒037 for 24 h. Total genomic DNA from each sample was isolated with the DNAiso reagent (Takara), and the levels of the 529-bp repeat element of T. gondii were measured by qPCR. A plaque assay was used to evaluate the activity of the compounds. The detailed experimental procedures were described in previous studies.

For series [3], the system named is T. gondii RH strain tachyzoites. In words: In vitro anti-invasion assay (qPCR; RH-GFP fluorescence microscopy). The note with it: 0.4 μM, RH strain, qPCR. It counts as cell-based, Toxoplasma gondii. As to the method:
Vero cells were seeded onto 6-well plates and cultured with DMEM supplemented with 10% FBS to obtain cell monolayers. The medium was replaced with fresh DMEM (1% FBS) containing NBZ023 or NBZ035 (0.24–30 μM), pyrimethamine (0.4 μM) or no drugs (as a control), and tachyzoites (2 × 10^6 per well) were then inoculated into the confluent Vero cell monolayers. At 2 h after infection, the cell monolayers were washed twice with PBS to remove extracellular tachyzoites and then total genomic DNA from the cell samples was isolated with the DNAiso reagent (Takara). The anti-invasion capabilities of NBZ023 and NBZ035 were determined by qPCR. The T. gondii RH strain with green fluorescence was seeded as described above. After infection, the cells were incubated for 36 h to fully observe the infection status of the parasites via fluorescence microscopy.

With `O=C(c1ccccc1Cl)c1nccc2c1[nH]c1ccc(C(=O)N3CCOCC3)cc12` [NBZ016], in series [1], the Cytotoxicity is > 30.00 µM and the inhibition at 30 µM turned out to be 10.5%. Testing at 30 µM in series [2] gave an inhibition of growth of 37.4%.
Taken in the same sequence, the figures for `Cc1ccccc1NC(=O)c1ccc2[nH]c3c(C(=O)c4ccccc4Br)nccc3c2c1` [NBZ024] were > 30.00 µM, 24.4% and 3.45%.
In the same order, the values of `Cc1ccc(NC(=O)c2ccc3[nH]c4c(C(=O)c5ccccc5Br)nccc4c3c2)cc1` [NBZ026] are > 30.00 µM, 23.6% and 21.1%.
Taken in the same sequence, the figures for `COc1ccc(C(=O)c2nccc3c2[nH]c2ccc(C)cc23)cc1` [NBZ008] were > 30.00 µM, 13.1% and 17.3%.
For the molecule `COc1ccc(C(=O)c2nccc3c2[nH]c2ccc(C(=O)O)cc23)cc1` [NBZ012], in series [1], the Cytotoxicity is > 30.00 µM and the inhibition at 30 µM came to 7.66%. The inhibition of growth at 30 µM in series [2] is 21.9%.
In the same order, the values of `CN(C)c1ccc(NC(=O)c2ccc3[nH]c4c(C(=O)c5ccccc5Br)nccc4c3c2)cc1` [NBZ033] are > 30.00 µM, 11.2% and 14.3%.
Taken in the same sequence, the figures for `CN(C)c1ccc(NC(=O)c2ccc3[nH]c4c(C(=O)c5ccccc5Cl)nccc4c3c2)cc1` [NBZ032] were > 30.00 µM, 16% and 73%.
Taken in the same sequence, the figures for `O=C(c1ccccc1Br)c1nccc2c1[nH]c1ccc(Br)cc12` [NBZ003] were > 30.00 µM, 21.8% and 40.8%.
Take `CCCCNC(=O)c1ccc2[nH]c3c(C(=O)c4ccccc4Br)nccc3c2c1` [NBZ014]: in series [1], the Cytotoxicity is > 30.00 µM and the inhibition at 30 µM came to 19.7%. In series [2], this molecule came in with an inhibition of growth at 30 µM of 2.09%.
For `Cc1ccc2[nH]c3c(C(=O)c4ccccc4Cl)nccc3c2c1` [NBZ004], in series [1], the Cytotoxicity was > 30.00 µM and the inhibition at 30 µM was determined as 5.35%. In series [2], this molecule yielded an inhibition of growth at 30 µM of 43.8%.
Taken in the same sequence, the figures for `Cc1ccc2[nH]c3c(C(=O)c4cccc(Br)c4)nccc3c2c1` [NBZ006] were > 30.00 µM, 13.1% and 33.3%.
Regarding `O=C(c1ccccc1Cl)c1nccc2c1[nH]c1ccccc12` [NBZ001], in series [1], the Cytotoxicity was > 30.00 µM and the inhibition at 30 µM is 24.2%. Further, at 30 µM the inhibition of growth in series [2] was 31.3%.
Regarding `CC(=O)OC[C@H]1O[C@@H](OC(C)=O)[C@H](NC(=O)c2ccc3[nH]c4c(C(=O)c5ccccc5Br)nccc4c3c2)[C@@H](OC(C)=O)[C@@H]1OC(C)=O` [NBZ019], in series [1], the Cytotoxicity was > 30.00 µM and the inhibition at 30 µM was 9.56%. The same molecule came in with an inhibition of growth at 30 µM in series [2] of 35.9%.
Turning to `Cc1ccccc1NC(=O)c1ccc2[nH]c3c4[n+](ccc3c2c1)-c1ccccc1C4=O` [NBZ036], in series [1], the Cytotoxicity is > 30.00 µM and the inhibition at 30 µM stood at 9.02%. In series [2], the inhibition of growth at 30 µM was determined as 42.9%.
Taken in the same sequence, the figures for `O=C(O)c1ccc2[nH]c3c(C(=O)c4ccccc4Cl)nccc3c2c1` [NBZ009] were > 30.00 µM, 15% and 32.1%.
For `NC(=O)c1ccc2[nH]c3c(C(=O)c4ccccc4Br)nccc3c2c1` [NBZ013], in series [1], the Cytotoxicity was > 30.00 µM and the inhibition at 30 µM was 11.2%. This molecule registered an inhibition of growth at 30 µM in series [2] of 34.5%.
Take `Cc1ccc(NC(=O)c2ccc3[nH]c4c(C(=O)c5ccccc5Cl)nccc4c3c2)cc1` [NBZ025]: in series [1], the Cytotoxicity is > 30.00 µM and the inhibition at 30 µM amounted to 3.96%. For the same molecule, in series [2], the inhibition of growth at 30 µM turned out to be 32.6%.
Taken in the same sequence, the figures for `O=C(c1ccccc1Br)c1nccc2c1[nH]c1ccccc12` [NBZ002] were > 30.00 µM, 27.2% and 42.2%.
Take `O=C(NC1CCCCC1)c1ccc2[nH]c3c(C(=O)c4ccccc4Br)nccc3c2c1` [NBZ015]: in series [1], the Cytotoxicity is > 30.00 µM and the inhibition at 30 µM was 3.68%. This molecule also returned an inhibition of growth at 30 µM in series [2] of 37.1%.
In the same order, the values of `O=C(O)c1ccc2[nH]c3c(C(=O)c4ccccc4Br)nccc3c2c1` [NBZ010] are > 30.00 µM, 16.6% and 45.2%.
With `Cc1ccc(NC(=O)c2ccc3[nH]c4c5[n+](ccc4c3c2)-c2ccccc2C5=O)cc1.[Cl-]` [NBZ037, 13-oxo-9-(p-tolylcarbamoyl)-12,13-dihydropyrido[1,2-a:3,4-b’]diindol-5-ium chloride], in series [1], the Cytotoxicity was > 30.00 µM and the inhibition at 30 µM was 29.7%.
Consider `O=C(Nc1ccccc1)c1ccc2[nH]c3c(C(=O)c4ccccc4Cl)nccc3c2c1` [NBZ021], for which, in series [1], the Cytotoxicity is > 30.00 µM and the inhibition at 30 µM was 11.4%. Further, in series [2] (30 μM screening, ortho-Cl versus NBZ022), the “improved efficacy over NBZ022” value was found to be 66.21%. Also, the inhibition of growth at 30 µM in series [2] is > 50%.
Regarding `Cc1ccc2[nH]c3c(C(=O)c4ccc(Br)cc4)nccc3c2c1` [NBZ007], in series [1], the Cytotoxicity is > 30.00 µM and the inhibition at 30 µM came out at 13.5%. This molecule also showed an inhibition of growth at 30 µM in series [2] of 31.2%.
As for `CCc1nc(N)nc(N)c1-c1ccc(Cl)cc1` [pyrimethamine, reference compound], the anti-invasion rate in series [3] was 26.77%.
`CN(C)c1cccc(NC(=O)c2ccc3[nH]c4c(C(=O)c5ccccc5Br)nccc4c3c2)c1` [NBZ031]: in series [1], the Cytotoxicity was > 30.00 µM and the inhibition at 30 µM turned out to be 6.47%. Moreover, 30 µM produced 72.7% inhibition of growth in series [2].
Take `O=C(NCc1ccco1)c1ccc2[nH]c3c(C(=O)c4ccccc4Br)nccc3c2c1` [NBZ017]: in series [1], the Cytotoxicity was > 30.00 µM and the inhibition at 30 µM was 10.8%. In series [2], this molecule showed an inhibition of growth at 30 µM of 43.4%.
Taken in the same sequence, the figures for `O=C(Nc1cccc2ccccc12)c1ccc2[nH]c3c(C(=O)c4ccccc4Br)nccc3c2c1` [NBZ020] were > 30.00 µM, 8.15% and 7.22%.
In the same order, the values of `Cc1ccc2[nH]c3c(C(=O)c4ccccc4Br)nccc3c2c1` [NBZ005] are > 30.00 µM, 43.9% and 33.9%.
Taken in the same sequence, the figures for `O=C(O)c1ccc2[nH]c3c(C(=O)c4ccc(Br)cc4)nccc3c2c1` [NBZ011] were > 30.00 µM, 3.88% and > 50%.
With `COc1ccccc1NC(=O)c1ccc2[nH]c3c(C(=O)c4ccccc4Cl)nccc3c2c1` [NBZ027, (2-Chlorobenzoyl)-N-(2-methoxyphenyl)-9H-pyrido[3,4-b]indole-6-carboxamide], in series [1], the Cytotoxicity was > 30.00 µM and the inhibition at 30 µM was determined as 27.9%.
For `CN(C)c1cccc(NC(=O)c2ccc3[nH]c4c(C(=O)c5ccccc5Cl)nccc4c3c2)c1` [NBZ030], in series [1], the Cytotoxicity was > 30.00 µM and the inhibition at 30 µM is 12.8%. For the same molecule, in series [2], the inhibition of growth at 30 µM is 69.2%.
Turning to `COc1ccc(NC(=O)c2ccc3[nH]c4c(C(=O)c5ccccc5Br)nccc4c3c2)cc1` [NBZ029], in series [1], the Cytotoxicity is > 30.00 µM and the inhibition at 30 µM worked out at 27.9%. 30 µM produced 30.3% inhibition of growth in series [2].
In the same order, the values of `O=C(Nc1ccccc1)c1ccc2[nH]c3c(C(=O)c4ccccc4Br)nccc3c2c1` [NBZ022] are > 30.00 µM, 46.8% and 17.4%.
With `O=C(Nc1cccc2ccccc12)c1ccc2[nH]c3c4[n+](ccc3c2c1)-c1ccccc1C4=O` [NBZ034], the inhibition at 30 µM in series [1] came to 58.2%.
With `COc1ccc(NC(=O)c2ccc3[nH]c4c(C(=O)c5ccccc5Cl)nccc4c3c2)cc1` [NBZ028], in series [1], the Cytotoxicity is > 30.00 µM and the inhibition at 30 µM was 19.3%.

These data come from paper PMC12750888, “Design, synthesis, and anti-Toxoplasma gondii evaluation of β-carboline derivatives” (Parasites & Vectors, 2025).
